Results as given in ChEMBL document CHEMBL1156714, “Microwave induced synthesis of novel 8,9-dihydro-7H-pyrimido[4,5-b][1,4]diazepines as potential antitumor agents” (2008).
Calls of active or inactive are those of the source. No cut-off for these calls is given here.

Columns and labels:
[1] = test system: SW-620; assay: Growth inhibition of human SW620 cells after 48 hrs by SRB assay; format: functional; details: SW-620, 48 h
[2] = test system: SK-MEL-5; assay: Growth inhibition of human SK-MEL-5 cells after 48 hrs by SRB assay; format: functional; details: SK-MEL-5, 48 h
[3] = test system: HCT-15; assay: Growth inhibition of human HCT15 cells after 48 hrs by SRB assay; format: functional; details: HCT-15, 48 h
[4] = test system: SK-OV-3; assay: Growth inhibition of human SK-OV-3 cells after 48 hrs by SRB assay; format: functional; details: SK-OV-3, 48 h
[5] = test system: NCI/ADR-RES; assay: Growth inhibition of human NCI/ADR-RES cells after 48 hrs by SRB assay; format: functional
[6] = test system: NCI-H23; assay: Growth inhibition of human NCI-H23 cells after 48 hrs by SRB assay; format: functional; details: NCI-H23, 48 h
[7] = test system: EKVX; assay: Growth inhibition of human EKVX cells after 48 hrs by SRB assay; format: functional
[8] = test system: A549; assay: Growth inhibition of human A549 cells after 48 hrs by SRB assay; format: functional; details: A549, 48 h
[9] = Growth inhibition of human […] cells after 48 hrs by SRB assay; format: functional
[10] = test system: HCC 2998; assay: Growth inhibition of human HCC2998 cells after 48 hrs by SRB assay; format: functional; details: HCC 2998, 48 h
[11] = test system: SF-539; assay: Growth inhibition of human SF539 cells after 48 hrs by SRB assay; format: functional; details: SF-539, 48 h
[12] = test system: SR; assay: Growth inhibition of human SR cells after 48 hrs by SRB assay; format: functional
[13] = test system: IGROV-1; assay: Growth inhibition of human IGROV1 cells after 48 hrs by SRB assay; format: functional; details: IGROV-1, 48 h
[14] = test system: NCI-60; assay: Growth inhibition of human NCI-60 cells at 1.0 uM; format: functional, cell-based
[15] = test system: SF-268; assay: Growth inhibition of human SF268 cells after 48 hrs by SRB assay; format: functional; details: SF-268, 48 h
[16] = test system: LOX IMVI; assay: Growth inhibition of human LOX IMVI cells after 48 hrs by SRB assay; format: functional
[17] = test system: UACC-62; assay: Growth inhibition of human UACC62 cells after 48 hrs by SRB assay; format: functional; details: UACC-62, 48 h
[18] = test system: SK-MEL-28; assay: Growth inhibition of human SK-MEL-28 cells after 48 hrs by SRB assay; format: functional; details: SK-MEL-28, 48 h
[19] = test system: SN12C; assay: Growth inhibition of human SN12C cells after 48 hrs by SRB assay; format: functional
[20] = test system: HT-29; assay: Growth inhibition of human HT29 cells after 48 hrs by SRB assay; format: functional; details: HT-29, 48 h
[21] = test system: TK-10; assay: Growth inhibition of human TK10 cells after 48 hrs by SRB assay; format: functional; details: TK-10, 48 h
[22] = test system: K562; assay: Growth inhibition of human K562 cells after 48 hrs by SRB assay; format: functional; details: K562, 48 h
[23] = test system: NCI-H460; assay: Growth inhibition of human NCI-H460 cells after 48 hrs by SRB assay; format: functional; details: NCI-H460, 48 h
[24] = test system: MDA-MB-231; assay: Growth inhibition of human MDA-MB-231 cells after 48 hrs by SRB assay; format: functional; details: MDA-MB-231, 48 h
[25] = test system: Hs-578T; assay: Growth inhibition of human HS578T cells after 48 hrs by SRB assay; format: functional
[26] = test system: UO-31; assay: Growth inhibition of human UO31 cells after 48 hrs by SRB assay; format: functional; details: UO-31, 48 h
[27] = test system: RXF 393; assay: Growth inhibition of human […] cells after 48 hrs by SRB assay; format: functional; details: RXF 393, 48 h
[28] = test system: COLO 205; assay: Growth inhibition of human COLO205 cells after 48 hrs by SRB assay; format: functional; details: COLO 205, 48 h
[29] = Growth inhibition of human OVACR3 cells after 48 hrs by SRB assay; format: functional
[30] = test system: MOLT-4; assay: Growth inhibition of human MOLT4 cells after 48 hrs by SRB assay; format: functional; details: MOLT-4, 48 h
[31] = test system: Malme-3M; assay: Growth inhibition of human MALME-3M cells after 48 hrs by SRB assay; format: functional
[32] = test system: MDA-MB-435; assay: Growth inhibition of human MDA-MB-435 cells after 48 hrs by SRB assay; format: functional; details: MDA-MB-435, 48 h
[33] = test system: CAKI-1; assay: Growth inhibition of human CAKI1 cells after 48 hrs by SRB assay; format: functional; details: CAKI-1, 48 h
[34] = Growth inhibition of human OVACR4 cells after 48 hrs by SRB assay; format: functional
[35] = test system: SNB-75; assay: Growth inhibition of human SNB75 cells after 48 hrs by SRB assay; format: functional; details: SNB-75, 48 h
[36] = test system: T47D; assay: Growth inhibition of human T47D cells after 48 hrs by SRB assay; format: functional
[37] = test system: SF-295; assay: Growth inhibition of human SF295 cells after 48 hrs by SRB assay; format: functional; details: SF-295, 48 h
[38] = test system: ACHN; assay: Growth inhibition of human ACHN cells after 48 hrs by SRB assay; format: functional
[39] = test system: NCI-H322M; assay: Growth inhibition of human NCI-H322M cells after 48 hrs by SRB assay; format: functional
[40] = test system: KM12; assay: Growth inhibition of human KM12 cells after 48 hrs by SRB assay; format: functional; details: KM12, 48 h
[41] = test system: NCI-H226; assay: Growth inhibition of human NCI-H226 cells after 48 hrs by SRB assay; format: functional; details: NCI-H226, 48 h
[42] = Growth inhibition of human HL60(TB) cells after 48 hrs by SRB assay; format: functional, HL-60(TB); details: Homo sapiens, HL-60, 48 h
[43] = read-out: LC50 (the source's name)

In the case of `Cc1ccc(C2=Nc3c(N)ncnc3NC(c3ccc4c(c3)OCO4)C2)cc1` (racemic), the GI50 [1] is reported as 3.56 µM, the CC50 [1, 43] is reported as over 100 µM and the GI50 [2] is reported as 3.85 µM. It also gave a CC50 [2, 43] of over 100 µM, a GI50 [3] of 3.14 µM and a CC50 [3, 43] of 55.2 µM. It also gave a GI50 [4] of 15.8 µM, a CC50 [4, 43] of over 100 µM and a GI50 [5] of 3.52 µM. It also gave a CC50 [5, 43] of over 100 µM, a GI50 [6] of 10.2 µM and a CC50 [6, 43] of over 100 µM. It also gave a GI50 [7] of 16.2 µM, a CC50 [7, 43] of over 100 µM and a GI50 [8] of 7.09 µM. It also gave an LC50 [8] of over 100 µM, a GI50 [9] of 13.5 µM and a CC50 [9, 43] of over 100 µM. It also gave a GI50 [10] of 6.29 µM, an LC50 (concentration killing 50% of cells) [10] of over 100 µM and a GI50 [11] of 4.98 µM. The CC50 [11, 43] was 69.9 µM, the GI50 [12] was 0.25 µM and the LC50 (concentration killing 50% of cells) [12] was over 100 µM. The GI50 [13] was 3.34 µM, the CC50 [13, 43] was over 100 µM and the Activity [14] was “Active”. For the same compound, the GI50 [15] was 4.06 µM, the LC50 (50% lethal concentration) [15] was 52.2 µM and the GI50 [16] was 6.38 µM. For the same compound, the CC50 [16, 43] was 81.5 µM, the GI50 [17] was 4.09 µM and the CC50 [17, 43] was over 100 µM. The GI50 [18] was 10.2 µM, the CC50 [18, 43] was over 100 µM and the GI50 [19] was 8.61 µM. The CC50 [19, 43] was over 100 µM, the GI50 [20] was 3.81 µM and the CC50 [20, 43] was over 100 µM. The GI50 [21] was 4.47 µM, the CC50 [21, 43] was 69.7 µM and the GI50 [22] was 4.19 µM. The LC50 [22] was over 100 µM, the GI50 [23] was 3.59 µM and the CC50 [23, 43] was over 100 µM. It also gave a GI50 [24] of 4.37 µM, a CC50 [24, 43] of 55.6 µM and a GI50 [25] of 7.28 µM. For the same compound, the CC50 [25, 43] was over 100 µM, the GI50 [26] was 10.8 µM and the CC50 [26, 43] was 65.2 µM. The GI50 [27] was 3.5 µM, the CC50 [27, 43] was over 100 µM and the GI50 [28] was 3.47 µM. The CC50 [28, 43] was over 100 µM, the GI50 [29] was 2.75 µM and the LC50 [29] was 23.3 µM. The GI50 [30] was 2.66 µM, the CC50 [30, 43] was over 100 µM and the GI50 [31] was 3.01 µM. The CC50 [31, 43] was over 100 µM, the GI50 [32] was 1.15 µM and the CC50 [32, 43] was 90.8 µM. The GI50 [33] was 1.44 µM, the CC50 [33, 43] was over 100 µM and the GI50 [34] was 17.7 µM. It also gave an LC50 [34] of over 100 µM, a GI50 [35] of 4.55 µM and a CC50 [35, 43] of over 100 µM. For the same compound, the GI50 [36] was 5.72 µM, the CC50 [36, 43] was over 100 µM and the GI50 [37] was 4.98 µM. It also gave an LC50 [37] of over 100 µM, a GI50 [38] of 7.74 µM and an LC50 (lethal concentration 50%) [38] of over 100 µM. For the same compound, the GI50 [39] was 16.5 µM, the CC50 [39, 43] was over 100 µM and the GI50 [40] was 3.79 µM. It also gave a CC50 [40, 43] of 75.1 µM, a GI50 [41] of 12.6 µM and a CC50 [41, 43] of over 100 µM. The GI50 [42] was 0.72 µM and the CC50 [42, 43] was over 100 µM.
